60 compounds from ChEMBL document CHEMBL1201862, “PubChem BioAssay data set” (2004) can be followed below.

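Growth conditions: 96-well plates. Treatment: test compound, 48 hours, 5 concentrations. Analysis: linear interpolation between bracketing concentrations; unreached endpoints set to highest concentration. At the GI50, growth is halved.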 Active and inactive are the calls of the source. Rule as the data show it: active = GI50 up to about 1.1 µM and inactive = higher. Where only a bound is given, the exact number is not on record here.

What all share (assay): inhibition of tumour cell growth, NCI panel, 48 h
For experiment [1], the system named is BT-549.
The subject of experiment [2] is DLD-1.
Experiment [3] deals with DMS-273.
The subject of experiment [4] is LXFL 529.
Experiment [5] has as its system HOP-18.
The subject of experiment [6] is KM-20L2.
The test system of experiment [7] is SNB-78.
Experiment [8] relates to XF498.
For experiment [9], the system named is RXF 631.

As to `Nc1c(C(=O)Nc2ccc([As](=O)(O)O)cc2)cnc2nnnn12`, in experiment [1], the GI50 is > 100 µM (inactive).

`N/C(=N\c1ccc(Cl)cc1)NS(=O)(=O)c1c(C(F)(F)F)cccc1C(F)(F)F`: the GI50 in [1] was 29.3 µM (inactive).

In the case of `CCOC(=O)CNC(=O)c1nc[nH]c1/N=N/N(C)C`, the GI50 in experiment [2], in [3] and in experiment [4] was > 100 µM (inactive) throughout.

As for `CC(=O)/C(=C/n1c(=S)[nH]c2ccccc21)C(=O)Nc1ccccc1C`, the GI50 in experiment [1] is > 100 µM (inactive).

On to `CC1=C/C(=C2/N=C(N(C)C)SS2)C(C)=N1.[O-][Cl+3]([O-])([O-])O`, for which the GI50 in experiment [2], in [3], in experiment [5], in [6], in experiment [4] and in [7] was > 100 µM (inactive) throughout. For the same compound, in experiment [8], the GI50 was > 100 µM (inactive).

In the case of `COc1nc2c(nc(N)n2C2OC(CO)C(O)C(O)C2O)c(=O)[nH]1` (stereo not drawn), the GI50 in experiment [2], in experiment [5], in [6], in experiment [4], in experiment [7] and in experiment [8] was > 100 µM (inactive) throughout.

For `CC(=O)NNc1nc(C)c(C(=O)/C=C/c2ccc(NC(C)=O)cc2)s1`, the GI50 in [2], in [3], in experiment [5], in experiment [6], in experiment [9] and in experiment [7] was > 100 µM (inactive) throughout.

Consider `CCOc1ccccc1NC(=O)CC(C(=O)OC)C(=O)C(=O)OC` (stereo not drawn), for which the GI50 in experiment [3], in experiment [5], in experiment [6], in [4], in experiment [9] and in [7] was > 100 µM (inactive) each time.

Regarding `S=C(Nc1ccc2c(c1)oc1ccccc12)c1cccs1`, the GI50 in [1] was 39.9 µM (inactive).

In the case of `CC1(C)OC2COC3(CNO)OC(C)(C)OC3C2O1` (stereo not drawn), the GI50 in experiment [2], in [3], in experiment [5] and in experiment [7] was > 100 µM (inactive) throughout.

As to `COc1ccc(OC)c2c(C(=O)O)c(Cc3ccccc3)ccc12`, the GI50 in experiment [2], in experiment [3], in experiment [5], in experiment [6], in experiment [4] and in experiment [8] was > 100 µM (inactive) each time.

Take `N#CC(C#N)=Cc1c[nH]c(=O)[nH]c1=O`: the GI50 in [1] was > 100 µM (inactive).

Consider `COc1ccc(OC)c(C(=O)/C=C/c2cc(O)c(O)cc2F)c1`, for which the GI50 in experiment [1] is 0.843 µM (active).

In the case of `O=S(=O)(SCc1ccccc1)C(c1ccccc1)c1ccccc1`, the GI50 is 13.2 µM (inactive) in [2]; 27.4 µM (inactive) in [3]; 20.6 µM (inactive) in [6]; 26.5 µM (inactive) in [4]; 30.5 µM (inactive) in [7]; 58.1 µM (inactive) in experiment [8].

Consider `O=C1c2ccccc2CCC1C(O)(C(F)(F)F)C(F)(F)F` (stereo not drawn), for which the GI50 in experiment [1] was > 100 µM (inactive).

As for `C/C(=C\c1ccccc1)C(=O)NCc1ccc(C(=O)NCCc2ccccc2)cc1`, in [1], the GI50 was 28.9 µM (inactive).

Take `CC(C)(O)C1COC2=C1C(=O)c1ccccc1C2=O` (stereo not drawn): in [1], the GI50 is 18.2 µM (inactive).

In the case of `CCCCCCCCCCCCOC(=S)NC`, the GI50 in experiment [2] is 17.1 µM (inactive); in [3], 19.5 µM (inactive); in experiment [5], 19 µM (inactive); in experiment [6] it was 19.4 µM (inactive); in experiment [4] it was 17 µM (inactive); in experiment [7], 27.8 µM (inactive). Moreover, in experiment [8], the GI50 was 20 µM (inactive).

As to `Cc1nc2sc(CCl)nn2c(=O)c1Cl`, the GI50 in [1] was 2.73 µM (inactive).

In the case of `COc1ccc(-n2nnc3c(C#N)c(-c4ccccc4)c(C)n3c2=O)cc1`, the GI50 in experiment [1] was > 100 µM (inactive).

As for `CC1(C)CCC[C@@]2(C)C1CC[C@@]1(CO1)[C@@H]2/C=C\C(C=O)CC=O` (stereo partly drawn), the GI50 in experiment [1] is > 100 µM (inactive).

As to `CC(C)(C)[Si](C)(C)OCCOCn1cc(F)c(=O)[nH]c1=O`, the GI50 in experiment [1] was > 100 µM (inactive).

For the compound `COC1C=C(Nc2cccc(Cl)c2)C(=O)C1` (stereo not drawn), the GI50 in [2] is 51.4 µM (inactive); in experiment [3], 50.4 µM (inactive); in [5] it was 19.1 µM (inactive); in [6], 55.5 µM (inactive); in experiment [4], 50.8 µM (inactive); in experiment [7], 48.4 µM (inactive). The GI50 in experiment [8] was 26.9 µM (inactive).

Consider `Cc1nc(C(N)=S)sc1C(=O)CC(=O)C(=O)Nc1ccc(Br)cc1`, for which the GI50 in experiment [1] is > 100 µM (inactive).

For the compound `O=C(CNC(=O)OCc1ccccc1)NCCCCC(NC(=O)OCc1ccccc1)C(=O)O` (stereo not drawn), in [1], the GI50 is > 100 µM (inactive).

Take `COc1cc(/C=C2/SC(c3ccccc3)N(Cc3ccccc3)C2=O)cc(OC)c1OC` (stereo not drawn): the GI50 in experiment [1] is 39 µM (inactive).

Turning to `N#CCCN(CCC#N)CCN(CCN(CCC#N)CCC#N)CCN(CCC#N)CCC#N`, the GI50 in experiment [1] was > 100 µM (inactive).

Regarding `CCN(CC)C(=S)N/N=C/c1cc([N+](=O)[O-])ccc1O`, the GI50 in [1] was 4.54 µM (inactive).

Turning to `N#CC1=C(N)C(C#N)(C#N)C(c2ccc(F)cc2)C=C1C1CC1` (stereo not drawn), the GI50 in experiment [1] was 3.2 µM (inactive).

In the case of `COc1ccc(C#CC(=O)O)c(OC)c1`, the GI50 in [1] was > 100 µM (inactive).

Take `COc1ccc2c(c1)C/C(=C\c1cccc3ccccc13)C2=O`: the GI50 in experiment [1] was 5.26 µM (inactive).

For `[O-][S+]1c2ccccc2NC(c2ccc3ccccc3c2)CC1c1ccccc1` (stereo not drawn), the GI50 in experiment [2] is 23.3 µM (inactive); in [3], 29.5 µM (inactive); in experiment [5] it was > 100 µM (inactive); in [6], 22.9 µM (inactive); in experiment [4], 15.7 µM (inactive); in experiment [8] it was 19.1 µM (inactive).

For the compound `CCOC(=O)C1=CN/C(=C(/C)C(=O)OC)SC1C(=O)OCC` (stereo not drawn), the GI50 in experiment [1] is > 90.6 µM (inactive).

As for `COCCCNc1c2ccccc2nc2ccccc12`, in experiment [1], the GI50 was 10.9 µM (inactive).

With `C[C@]12C[C@H](O)[C@H]3[C@@H](CCC4=CC(=O)CC[C@@]43C)[C@@H]1CC[C@@H]2c1csc(-c2ccccc2)n1`, in [1], the GI50 was > 100 µM (inactive).

Take `CN(C)c1ccc(C2ON=C(c3ccccc3)N2C23CC4CC(CC(C4)C2)C3)cc1` (stereo not drawn): the GI50 in experiment [1] was > 10 µM (inactive).

Consider `O=C(Nc1ccc(Cl)c(Cl)c1)OCCN1c2ccccc2Sc2ccccc21`, for which, in [1], the GI50 is > 10 µM (inactive).

As to `CS(=O)(=O)OCCCCOS(=O)(=O)CF`, the GI50 in [1] is > 100 µM (inactive).

On to `Fc1c(F)c(C(F)(F)F)c(F)c(F)c1N/N=C\c1c[nH]c2ccccc12`, for which the GI50 in [1] is 1.5 µM (inactive).

For `O=c1cc(-c2ccccc2)[nH]c2c(Cl)cccc12`, the GI50 was 20.5 µM (inactive) in experiment [2]; 7.11 µM (inactive) in [3]; 14.4 µM (inactive) in experiment [6]; 31.5 µM (inactive) in experiment [4]; 51.9 µM (inactive) in experiment [9]; 26.8 µM (inactive) in [8].

As to `CC(C)(Br)C(Br)CCC(C)(Br)C(Br)CO` (stereo not drawn), the GI50 in experiment [1] is > 10 µM (inactive).

Consider `O=c1[nH]nc(Cc2ccccc2)n1/N=C/c1cccnc1`, for which, in experiment [1], the GI50 is 25 µM (inactive).

For `COc1ccc(-c2c(C#N)c(N)nc3c2CCS(=O)(=O)c2ccccc2-3)cc1`, the GI50 in experiment [1] was > 100 µM (inactive).

In the case of `C=C(C(=O)O)[C@@H]1C[C@@H](OC(C)=O)[C@]2(C)CC/C=C(\C)CCC[C@H](C)[C@H](O)[C@@H]1O2`, the GI50 in experiment [1] is 25.1 µM (inactive).

`COc1cc2c(cc1OC)C1(c3ccccc3)CN(C2)Cc2cc(OC)c(OC)cc21`: the GI50 in [1] is 29.8 µM (inactive).

For `Nc1nn2c(nc(N)c3c(N)n[nH]c32)c1/N=N\c1ccc(Br)cc1`, the GI50 in experiment [1] is 2.92 µM (inactive).

`Nc1n2nc(-c3ccccc3)sc2n[n+]1CC(=O)c1ccccc1`: the GI50 in [1] was 25.9 µM (inactive).

`Cc1cc2nc(N3C(=O)/C(=C/Cc4ccco4)N=C3c3ccccc3)sc2cc1C`: the GI50 in experiment [1] is 30.5 µM (inactive).

On to `C=C(C)C[C@H](Sc1nc2ccccc2s1)[C@H](C)O`, for which the GI50 in experiment [1] is 40.2 µM (inactive).

Regarding `CC1CC2(S(=O)(=O)c3ccccc3)ON1CC2S(=O)(=O)c1ccccc1` (stereo not drawn), the GI50 in experiment [2], in experiment [3], in [6], in experiment [4], in [9] and in experiment [8] was > 100 µM (inactive) in each case.

Regarding `O=C(CC/C(CC(=O)c1ccc(Br)cc1)=N\O)Nc1ccc(Cl)c(Cl)c1`, the GI50 in [2] was > 100 µM (inactive); in experiment [3], 82.8 µM (inactive); in experiment [5] it was 60.5 µM (inactive); in [6] it was > 100 µM (inactive); in [4] it was 47.3 µM (inactive); in [7], > 100 µM (inactive).

With `N#CC(C(=O)CCC(=O)Nc1ccc(Cl)cc1)c1ccccc1Cl` (stereo not drawn), the GI50 was 74.1 µM (inactive) in [2]; > 100 µM (inactive) in experiment [3]; 17.1 µM (inactive) in [6]; 13.4 µM (inactive) in experiment [4]; > 100 µM (inactive) in [9]; > 100 µM (inactive) in experiment [7]. The GI50 in experiment [8] is > 100 µM (inactive).

Regarding `O=C1/C(=C\c2ccc(Cl)cc2Cl)Sc2scc(-c3ccc(O)c(O)c3)[n+]21`, the GI50 in experiment [1] was 17.9 µM (inactive).

For `Cc1ccc([S+]([O-])C[C@](NC(=O)OCc2ccccc2)(Sc2ccccc2)C(F)F)cc1` (stereo partly drawn), the GI50 in experiment [1] is 16.3 µM (inactive).

On to `CCCCCCc1ccc(C(=O)NO)cc1`, for which the GI50 in experiment [1] was 28.6 µM (inactive).

Turning to `Cc1cccc2c3ccc4c(c3n(C)c12)C(=O)C=CC4=O`, the GI50 in experiment [2] is > 100 µM (inactive); in experiment [3] it was 76 µM (inactive); in experiment [4], > 100 µM (inactive); in experiment [9], > 100 µM (inactive); in [7], > 100 µM (inactive).

With `N/N=C1/C2CN3CCN(C2)CC1(c1ccc([N+](=O)[O-])cc1)C3`, the GI50 in experiment [1] is > 100 µM (inactive).

Take `C/C(=N\Nc1nc2ccccc2n1C)c1ccncn1`: in experiment [1], the GI50 was 5.6 µM (inactive).

In the case of `O=C1OI(C#Cc2ccccc2)c2ccccc21`, the GI50 in experiment [1] was 2.88 µM (inactive).

Turning to `COC(=O)C1[C@H](C(=O)OC)C1(Br)CBr` (stereo partly drawn), the GI50 in experiment [1] is > 100 µM (inactive).
